According to paper PMC10482274, “Probing the substrate binding modes and catalytic mechanisms of BLEG-1, a promiscuous B3 metallo-β-lactamase with glyoxalase II properties” (PLOS ONE, 2023):
pKd: −log10 of the molar value.

Biological target: T1, BLEG-1 (B3 metallo-β-lactamase) (Shouchella lehensis, UniProt A0A060M4R1)
T1 construct: gene BleG1_2478; wild-type recombinant BLEG-1 (26 kDa), purified by Ni-NTA
Experiment: circular dichroism titration ([…] nm, non-linear regression); hydrolysis assay at […] nm with the purified enzyme
Format: binding

T1 sequence (A0A060M4R1 entry or part of it): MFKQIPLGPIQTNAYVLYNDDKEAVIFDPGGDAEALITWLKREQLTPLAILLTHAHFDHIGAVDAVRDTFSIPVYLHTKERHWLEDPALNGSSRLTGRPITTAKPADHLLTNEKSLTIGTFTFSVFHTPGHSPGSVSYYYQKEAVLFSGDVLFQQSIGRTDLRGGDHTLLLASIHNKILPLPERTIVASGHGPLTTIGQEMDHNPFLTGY

Work on `CC1(C)S[C@@H]2[C@H](NC(=O)[C@H](N)c3ccccc3)C(=O)N2[C@H]1C(=O)O` [ampicillin] yielded a pKd of 5.82.
